Data taken from patent US9867826B2, “Heterocycles as modulators of kinase activity” (Merck Patent GmbH, priority 2013, dated 2018).

Key:
His-AKT (Full Length) = His-AKT (Full Length) (Homo sapiens (Human), UniProt P31749); experiment: AKT enzyme assay; type: biochemical; conditions: 160 uM ATP
Protocol: A TTP Mosquito liquid handling instrument was used to place 125 nl of the appropriate concentration of inhibitor in 100% DMSO (for a dose response curve calculation) into each well of a 384-well plate. To this reaction components were added to a final volume of 12.5 μl: • 0.1 ng/μl His-AKT (Full Length), (Invitrogen, Part # P2999, Lot #641228C). • 160 uM ATP (Fluka, 02055) • 1 mM DTT (Sigma, D0632) • 1 mM MgCl2 (Sigma, M1028) • 1 μM substrate peptide (sequence FITC-AHA-GRPRTSSFAEG-NH2), synthesized by Tufts Peptide Synthesis service. • 100 mM HEPES pH 7.5 (Calbiochem, 391338) • 0.015% Brij-35 (Sigma, B4184)
The reaction was incubated for 90 min at 25 C., and then stopped by the addition of 70 μl of Stop buffer (100 mM HEPES pH 7.5, 0.015% Brij-35, 10 mM EDTA (Sigma, E7889)).
The plate was read on a Caliper LC 3000 in an Off-Chip mobility shift assay format, using the following parameters for a 12-sipper chip: screening pressure −2.3 psi, upstream voltage −500, and downstream voltage −3000. These conditions caused unphosphorylated substrate and phosphorylated product peptide to resolve as separate peaks allowing direct measurement of percentage of conversion of substrate to product.
The percent conversion was plotted against concentration of inhibitor to produce a sigmoidal dose response curve, from which an IC50 was calculated.

P70S6K (T412E mutant) = P70S6K (T412E mutant) (Homo sapiens (Human), UniProt P23443, T412E); experiment: P70S6K enzyme assay; type: biochemical; conditions: 24 μM ATP
Sequence of P70S6K (T412E mutant) (P23443 whole entry T412E): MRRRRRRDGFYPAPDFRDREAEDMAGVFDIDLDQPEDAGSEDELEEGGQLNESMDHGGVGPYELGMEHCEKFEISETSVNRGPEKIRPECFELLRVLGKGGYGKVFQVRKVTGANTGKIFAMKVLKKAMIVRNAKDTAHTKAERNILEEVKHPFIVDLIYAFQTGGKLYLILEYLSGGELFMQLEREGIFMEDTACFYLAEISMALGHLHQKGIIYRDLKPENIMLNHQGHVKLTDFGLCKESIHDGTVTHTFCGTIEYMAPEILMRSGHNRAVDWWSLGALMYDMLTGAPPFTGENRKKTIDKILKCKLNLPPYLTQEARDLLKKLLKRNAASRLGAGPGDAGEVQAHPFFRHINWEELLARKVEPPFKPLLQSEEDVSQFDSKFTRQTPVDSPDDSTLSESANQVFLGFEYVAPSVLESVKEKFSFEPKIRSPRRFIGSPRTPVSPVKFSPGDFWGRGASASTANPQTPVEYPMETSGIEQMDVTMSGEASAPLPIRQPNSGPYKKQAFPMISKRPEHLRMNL
Protocol: P70S6K inhibitor compounds were diluted and plated in 96 well plates. A reaction mixture including the following components was then added to the compound plate to initiate the enzyme reaction; P70S6K (3 nM, T412E mutant, Millipore) was mixed with 24 μM ATP in an assay buffer containing 100 mM Hepes (pH 7.5), 5 mM MgCl2, 1 mM DTT, 0.015% Brij and 1 μM of the substrate peptide FITC-AHA-AKRRRLSSLRA-OH (derived from the S6 ribosomal protein sequence, FITC=fluorescein isothiocyanate, AHA=6-aminohexanoic acid). The reaction was incubated for 90 min at 25° C., before the addition of 10 mM EDTA to stop the reaction. The proportion of substrate and product (phosphorylated) peptide was analysed on a Caliper Life Sciences Lab Chip 3000, using a pressure of −1.4 psi, and upstream and downstream voltages of −3000 and −700 respectively. Product peaks were resolved before substrate peaks on the resulting chromatograms.

Sequence of His-AKT (Full Length) (P31749 whole entry): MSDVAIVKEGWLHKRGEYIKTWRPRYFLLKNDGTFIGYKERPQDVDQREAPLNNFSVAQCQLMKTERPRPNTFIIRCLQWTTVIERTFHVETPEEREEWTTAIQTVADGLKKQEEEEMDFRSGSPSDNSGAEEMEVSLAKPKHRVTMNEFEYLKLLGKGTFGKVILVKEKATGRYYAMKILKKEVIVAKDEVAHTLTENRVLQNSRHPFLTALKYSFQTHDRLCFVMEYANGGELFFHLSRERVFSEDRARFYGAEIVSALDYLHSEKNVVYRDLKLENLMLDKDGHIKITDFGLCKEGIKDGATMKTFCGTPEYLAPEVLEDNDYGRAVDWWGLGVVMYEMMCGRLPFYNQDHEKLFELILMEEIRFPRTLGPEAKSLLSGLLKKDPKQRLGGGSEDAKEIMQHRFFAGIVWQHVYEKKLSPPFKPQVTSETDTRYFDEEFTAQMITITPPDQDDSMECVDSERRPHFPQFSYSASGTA

SMILES	IC50 (His-AKT (Full Length)) [nM]	IC50 (P70S6K (T412E mutant)) [nM]
CNCCn1cc(-c2ccc(F)c(C)c2)nc1[C@@H]1CCN(c2ncnc(N)c2C(C)C)C[C@@H]1F (racemic) [Compound 38, 6-{cis-3-Fluoro-4-[4-(4-fluoro-3-methyl-phenyl)-1-(2-methylamino-ethyl)-1H-imidazol-2-yl]-piperidin-1-yl}-5-isopropyl-pyrimidin-4-ylamine]	1 to 10	1 to 10
Cc1cc(-c2cn(CCN3CCC3)c([C@@H]3CCN(c4ncnc(N)c4OC(C)C)C[C@@H]3F)n2)ccc1F (racemic) [Compound 39, 6-{cis-4-[1-(2-Azetidin-1-yl-ethyl)-4-(4-fluoro-3-methyl-phenyl)-1H-imidazol-2-yl]-3-fluoro-piperidin-1-yl}-5-isopropoxy-pyrimidin-4-ylamine]	1 to 10	1 to 10
Cc1cc(-c2cn(CC3CNC3)c([C@@H]3CCN(c4ncnc(N)c4C(C)C)C[C@@H]3F)n2)ccc1F (racemic) [Compound 41, 6-{cis-4-[1-Azetidin-3-ylmethyl-4-(4-fluoro-3-methyl-phenyl)-1H-imidazol-2-yl]-3-fluoro-piperidin-1-yl}-5-isopropyl-pyrimidin-4-ylamine]	1 to 10	1 to 10
N#Cc1c[nH]c2ncnc(N3CC[C@@H](c4nc(-c5ccc(F)c(C(F)(F)F)c5)cn4CCN4CCC4)[C@@H](F)C3)c12 (racemic) [Compound 42]	1 to 10	1 to 10
N#Cc1c[nH]c2ncnc(N3CC[C@@H](c4nc(-c5ccnc(C(F)(F)F)c5)cn4CCN4CCC4)[C@@H](F)C3)c12 (racemic) [Compound 43]	1 to 10	1 to 10
Cc1cc(-c2cn(CCN3CCC3)c([C@@H]3CCN(c4ncnc(N)c4C(N)=O)C[C@@H]3F)n2)ccc1F (relative stereo) [Compound 19, 4-Amino-6-{cis-4-[1-(2-azetidin-1-yl-ethyl)-4-(4-fluoro-3-methyl-phenyl)-1H-imidazol-2-yl]-3-fluoro-piperidin-1-yl}-pyrimidine-5-carboxylic acid amide]	1 to 10	1 to 10
NC(=O)c1c(N)ncnc1N1CC[C@@H](c2nc(-c3ccc(F)c(C(F)(F)F)c3)cn2CCN2CCC2)[C@@H](F)C1 (single isomer, unassigned) [Compound 3]	1 to 10	1 to 10
NC(=O)c1c(N)ncnc1N1CC[C@H](c2nc(-c3ccc(F)c(C(F)(F)F)c3)cn2CCN2CCC2)[C@H](F)C1 (single isomer, unassigned) [Compound 4]	> 10	1 to 10
CN(C)CCn1cc(-c2ccc(F)c(C(F)(F)F)c2)nc1[C@H]1CCN(c2ncnc(N)c2C(N)=O)C[C@H]1F (single isomer, unassigned) [Compound 20]	1 to 10	1 to 10
CN(C)CCn1cc(-c2ccc(F)c(C(F)(F)F)c2)nc1[C@@H]1CCN(c2ncnc(N)c2C(N)=O)C[C@@H]1F (single isomer, unassigned) [Compound 21]	> 10	1 to 10
CCOc1c(N)ncnc1N1CC[C@@H](c2nc(-c3ccc(F)c(C(F)(F)F)c3)cn2CCN2CCC2)[C@@H](F)C1 (single isomer, unassigned) [Compound 22]	1 to 10	1 to 10
CCOc1c(N)ncnc1N1CC[C@H](c2nc(-c3ccc(F)c(C(F)(F)F)c3)cn2CCN2CCC2)[C@H](F)C1 (single isomer, unassigned) [Compound 23]	1 to 10	1 to 10
Cc1cc(-c2cn(CCN3CCC3)c([C@@H]3CCN(c4ncnc(N)c4C(N)=O)C[C@@H]3F)n2)ccc1F (single isomer, unassigned) [Compound 27]	1 to 10	1 to 10
Cc1cc(-c2cn(CCN3CCC3)c([C@H]3CCN(c4ncnc(N)c4C(N)=O)C[C@H]3F)n2)ccc1F (single isomer, unassigned) [Compound 28]	> 10	> 10
CN(C)CCn1cc(-c2ccc(F)c(C(F)(F)F)c2)nc1[C@@H]1CCN(c2ncnc(N)c2Cl)C[C@@H]1F (single isomer, unassigned) [Compound 29]	1 to 10	1 to 10
CN(C)CCn1cc(-c2ccc(F)c(C(F)(F)F)c2)nc1[C@H]1CCN(c2ncnc(N)c2Cl)C[C@H]1F (single isomer, unassigned) [Compound 30]	> 10	1 to 10
CC(C)c1c(N)ncnc1N1CC[C@H](c2nc(-c3ccc(F)c(C(F)(F)F)c3)cn2CCN(C)C)[C@H](F)C1 (single isomer, unassigned) [Compound 31]	> 10	1 to 10
CC(C)c1c(N)ncnc1N1CC[C@@H](c2nc(-c3ccc(F)c(C(F)(F)F)c3)cn2CCN(C)C)[C@@H](F)C1 (single isomer, unassigned) [Compound 32]	1 to 10	1 to 10
Cc1cc(-c2cn(CCN3CCC3)c([C@H]3CCN(c4ncnc(N)c4C(C)C)C[C@H]3F)n2)ccc1F (single isomer, unassigned) [Compound 34]	> 10	1 to 10
Cc1cc(-c2cn(CCN3CCC3)c([C@@H]3CCN(c4ncnc(N)c4C(C)C)C[C@@H]3F)n2)ccc1F (single isomer, unassigned) [Compound 35]	1 to 10	1 to 10
N#Cc1c(N)ncnc1N1CC[C@@H](c2nc(-c3ccc(F)c(C(F)(F)F)c3)cn2CCN2CCC2)[C@@H](F)C1 (single isomer, unassigned) [Compound 40]	1 to 10	1 to 10
Cc1cc(-c2cn(CCN3CCC3)c(C3(O)CCN(c4ncnc(N)c4C#N)CC3)n2)ccc1F [Compound 44, 4-Amino-6-{4-[1-(2-azetidin-1-yl-ethyl)-4-(4-fluoro-3-methyl-phenyl)-1H-imidazol-2-yl]-4-hydroxy-piperidin-1-yl}-pyrimidine-5-carbonitrile]	1 to 10	1 to 10
Cc1cc(-c2cn(CCN3CCC3)c(C3(O)CCN(c4ncnc(N)c4C(C)C)CC3)n2)ccc1F [Compound 45, 1-(6-Amino-5-isopropyl-pyrimidin-4-yl)-4-[1-(2-azetidin-1-yl-ethyl)-4-(4-fluoro-3-methyl-phenyl)-1H-imidazol-2-yl]-piperidin-4-ol]	1 to 10	1 to 10
CCc1c(N)ncnc1N1CCC(O)(c2nc(-c3ccc(F)c(C)c3)cn2CCN2CCC2)CC1 [Compound 46, 1-(6-Amino-5-ethyl-pyrimidin-4-yl)-4-[1-(2-azetidin-1-yl-ethyl)-4-(4-fluoro-3-methyl-phenyl)-1H-imidazol-2-yl]-piperidin-4-ol]	1 to 10	1 to 10
Cc1cc(-c2cn(CCN3CCC3)c(C3(O)CCN(c4ncnc(N)c4Cl)CC3)n2)ccc1F [Compound 47, 1-(6-Amino-5-chloro-pyrimidin-4-yl)-4-[1-(2-azetidin-1-yl-ethyl)-4-(4-fluoro-3-methyl-phenyl)-1H-imidazol-2-yl]-piperidin-4-ol]	1 to 10	1 to 10
Cc1cc(-c2cn(CCN3CCC3)c(C3CCN(c4ncnc(N)c4C#N)CC3(F)F)n2)ccc1F (centres unmarked) [Compound 48, 4-Amino-6-{4-{1-(2-azetidin-1-yl-ethyl)-4-(4-fluoro-3-methyl-phenyl)-1H-imidazol-2-yl}-3,3-difluoro-piperidin-1-yl}-pyrimidine-5-carbonitrile]	1 to 10	1 to 10
Cc1cc(-c2cn(CCN3CCC3)c(C3CCN(c4ncnc(N)c4C(N)=O)CC3(F)F)n2)ccc1F (centres unmarked) [Compound 49, 4-Amino-6-{4-[1-(2-azetidin-1-yl-ethyl)-4-(4-fluoro-3-methyl-phenyl)-1H-imidazol-2-yl]-3,3-difluoro-piperidin-1-yl}-pyrimidine-5-carboxylic acid amide]	> 10	> 10
Cc1cc(-c2cn(CCN3CCC3)c(C3CCN(c4ncnc(N)c4C(C)C)CC3(F)F)n2)ccc1F (centres unmarked) [Compound 50, 6-{4-[1-(2-Azetidin-1-yl-ethyl)-4-(4-fluoro-3-methyl-phenyl)-1H-imidazol-2-yl]-3,3-difluoro-piperidin-1-yl}-5-isopropyl-pyrimidin-4-ylamine]	1 to 10	1 to 10
